# Test results published in patent US20240358885A1, “COMPOSITIONS FOR EMBOLIZATION” (IBERHOSPITEX, S.A., priority 2021, published 2024).
# Columns and labels:
# [1] = Radiopacity loss and homogeneity of precipitates incubated in PBS at 37° C.; assay type: physicochemical; set-up: key to Homogeneous radiopacity (0-1): non-homegeneous (score=0); homogeneous (score=1); settings: for Radiopacity loss (0-3) / Homogeneous radiopacity (0-1): score; for Radiopacity loss (0-3): 30 days in PBS at 37° C. vs time=0, 150 mg equivalent iodine/ml with 6% ethylene vinyl alcohol copolymer in DMSO; for Homogeneous radiopacity (0-1): C-arm X-ray; for radiopacity loss in PBS over time (in words): PBS at 37° C., 30 min and 30 days
# Method: (§1) The resulting solutions were assayed to assess the precipitation behavior and the radiopacity loss.
# Radiopacity loss of precipitates was determined by comparing the radiopacity of freshly prepared samples (time=0) and samples incubated for 30 days in phosphate buffered saline (PBS) at 37° C. PBS was changed daily when possible. Radiopacity was determined using a C-arm X-ray equipment (OEC Fluorostar 7900COMPACT2, General Electric). Radiopacity loss was scored as radiostable (score =0) when the radiopacity loss was below 5%, slightly radiolabile when the radiopacity loss was comprised between 5 to 25% radiopacity loss (score=1), moderately radiolabile when the radiopacity loss was comprised between 26 to 69% radiopacity loss (score=2) and highly radiolabile when the radiopacity loss was comprised between 70to 100% radiopacity loss (score=3). Homogeneity of the radiopacity was also scored as non-homegeneous (score=0) or homogeneous (score=1).
# The procedure was as defined above. It can be observed that formulations with high logP values, i.e. above 7.0, are radiostable, while formulations with low logP values, i.e. below 2.0 (logP (LFE13)=−1.6 and logP (LFE23) at pH 7.4=−0.5) lose their radiopacity within minutes.
# [2] = Precipitation behavior on slow injection into PBS; assay type: physicochemical; set-up: key: cohesive (2); cohesive with loss of some material (1); uncontrollable injection or not cohesive (0); settings: score; 100 ul injected slowly into PBS, 27 G needle
# Method: as §1
# Embolization formulations were slowly injected into phosphate buffered saline (PBS) using a syringe and a fine needle (27 G). Precipitates of embolizing material were obtained after slow injection (1 minute approximately) of 100 ul of embolization formulations. The precipitation behavior was observed and scored as cohesive (2), cohesive with loss of some material (1) and uncontrollable injection or not cohesive (0).
# renal artery = assay: In vivo embolization of porcine kidney; settings: 0.6 ml injected into the renal artery, 35 kg swine
# Method: In this example, a 35 kg swine was prepared for blood vessel embolization using the embolic composition LFE09 prepared according to Example 2. Embolization of the left kidney proceeded by placement of a microcatheter into the kidney. The catheter was advanced into the renal artery, flushed with contrast agent to identify the location and then flushed with DMSO, followed by 0.6 ml of the LFE09 composition described above, followed yet by more DMSO within the catheter. LFE09 composition was quickly injected into the renal artery. […] After 14 days, the right kidney was embolized with 0.6 ml of the same LFE09 formulation and the animal was euthanized.
# [3] = Radiopacity loss and homogeneity of precipitates incubated in PBS at 37° C.; assay type: physicochemical; settings: 30 min of incubation in PBS at 37° C.
# [4] = 30 days of incubation in PBS at 37° C.
SMILES,Radiopacity loss (0-3) [1],Homogeneous radiopacity (0-1) [1],Precipitation (0-2) [2],"% of radiopacity compared to time zero [1, 4]",radiopacity loss in PBS over time (in words) [1],% of radiopacity compared to time zero ([1]; t zero),embolization of the kidney (in words) (renal artery),% of radiopacity compared to time zero [3]
CCCCCCOc1c(I)cc(I)cc1I [LFE01],1 (slightly radiolabile when the radiopacity loss was comprised between 5 to 25% radiopacity loss (score=1)),0,2,,,,,
"CCOC(=O)COc1c(I)cc(I)cc1I [LFE02, ethyl 2,4,6-triiodophenoxyacetate]",2 (moderately radiolabile when the radiopacity loss was comprised between 26 to 69% radiopacity loss (score=2)),0,1,,,,,
CCCOC(=O)Cn1cc(I)c(=O)c(I)c1 [LFE03],3 (highly radiolabile when the radiopacity loss was comprised between 70to 100% radiopacity loss (score=3)),1,2,14.5%,significant radiopacity loss,100.0%,,
CCCCCCOC(=O)Cn1cc(I)c(=O)c(I)c1 [LFE04],2 (moderately radiolabile when the radiopacity loss was comprised between 26 to 69% radiopacity loss (score=2)),1,2,,,,,
COCCOCCOCCOc1c(I)cc(I)cc1I [LFE05],3 (highly radiolabile when the radiopacity loss was comprised between 70to 100% radiopacity loss (score=3)),0,2,,,,,
OCCOCCOCCOc1c(I)cc(I)cc1I [LFE06],2 (moderately radiolabile when the radiopacity loss was comprised between 26 to 69% radiopacity loss (score=2)),1,2,,,,,
COCCOCCOCCOCCOCCOc1c(I)cc(I)cc1I [LFE07],2 (moderately radiolabile when the radiopacity loss was comprised between 26 to 69% radiopacity loss (score=2)),1,2,,,,,
COCCOCCOCCOCCOCCOCCOCCOCCOCCOCCOCCOCCOc1c(I)cc(I)cc1I [LFE08],2 (moderately radiolabile when the radiopacity loss was comprised between 26 to 69% radiopacity loss (score=2)),1,0,29.3%,significant radiopacity loss,100.0%,,
COCCOCCOCCOC(=O)COc1c(I)cc(I)cc1I [LFE09],3 (highly radiolabile when the radiopacity loss was comprised between 70to 100% radiopacity loss (score=3)),1,2,64.7%,significant radiopacity loss,100.0%,the upper pole of the kidney was blocked,
O=C(COc1c(I)cc(I)cc1I)OCCOCCOCCO [LFE10],3 (highly radiolabile when the radiopacity loss was comprised between 70to 100% radiopacity loss (score=3)),1,2,,,,,
CC(=O)OCCOCCOCCOc1c(I)cc(I)cc1I [LFE12],2 (moderately radiolabile when the radiopacity loss was comprised between 26 to 69% radiopacity loss (score=2)),0,2,,,,,
"CN(C(=O)CO)c1c(I)c(C(=O)NCC(O)CO)c(I)c(C(=O)NCC(O)CO)c1I (centres unmarked) [LFE13, iomeprol, reference compound]",3 (highly radiolabile when the radiopacity loss was comprised between 70to 100% radiopacity loss (score=3)),1,0,11.9%,,100.0%,,29.0%
CC(=O)OCC(=O)N(C)c1c(I)c(C(=O)NCC(COC(C)=O)OC(C)=O)c(I)c(C(=O)NCC(COC(C)=O)OC(C)=O)c1I (centres unmarked) [LFE14],3 (highly radiolabile when the radiopacity loss was comprised between 70to 100% radiopacity loss (score=3)),1,2,,,,,
O=C(OCCOCCOCCOCCOCCO)c1cc(I)cc(I)c1I [LFE17],2 (moderately radiolabile when the radiopacity loss was comprised between 26 to 69% radiopacity loss (score=2)),1,2,,,,,
COCCOCCOCCOCCOCCOCc1cc(I)cc(I)c1I [LFE19],1 (slightly radiolabile when the radiopacity loss was comprised between 5 to 25% radiopacity loss (score=1)),1,2,,,,,
COCCOCCOCCOCc1cc(I)cc(I)c1I [LFE20],1 (slightly radiolabile when the radiopacity loss was comprised between 5 to 25% radiopacity loss (score=1)),0,2,,,,,
CCCCCCOC(=O)c1c(I)c(NC(C)=O)c(I)c(NC(C)=O)c1I [LFE21],1 (slightly radiolabile when the radiopacity loss was comprised between 5 to 25% radiopacity loss (score=1)),1,2,91.4%,significant radiopacity loss,100.0%,,
CCCOC(=O)c1c(I)c(NC(C)=O)c(I)c(NC(C)=O)c1I [LFE22],1 (slightly radiolabile when the radiopacity loss was comprised between 5 to 25% radiopacity loss (score=1)),1,2,,,,,
"CC(=O)Nc1c(I)c(NC(C)=O)c(I)c(C(=O)O)c1I [LFE23, Diatrizoic acid, reference compound]",3 (highly radiolabile when the radiopacity loss was comprised between 70to 100% radiopacity loss (score=3)),1,1,19.0%,,100.0%,,35.6%
CCCCC(CC)COc1c(I)cc(I)cc1I (centres unmarked) [LFE24],0 (radiostable (score =0) when the radiopacity loss was below 5%),0,1,101.9%,complete radiostability,100.0%,,101.3%
